Data published in patent US20050013856A1, “Solid dispersions comprising a hygroscopic and/or deliquescent drug” (priority 2002, published 2005).

Experiments:
[1] = Hygroscopicity / deliquescence of the unformulated drug; type: physicochemical
Excerpt: It is particularly surprising that such a hygroscopic and deliquescent drug can be formulated in accordance with the present invention as an acceptably non-hygroscopic composition.

[2] = Solubility of the drug in matrix forming agents HPMC and PEG; type: physicochemical

Row | Compound | Hygroscopicity and deliquescence [1] | Solubility in HPMC and PEG [2]
1 | CC(=N)NCCSC[C@](C)(N)C(=O)O [S-[2-[(1-iminoethyl)amino]ethyl]-2-methyl-L-cysteine] | extremely hygroscopic and deliquescent | low solubility
2 | S-[2-[(1-iminoethyl)amino]ethyl]-2-methyl-L-cysteine dihydrochoride [Compound A] | extremely hygroscopic and deliquescent | 
